According to ChEMBL document CHEMBL3085697, “Design and synthesis of aryl sulfonamide-based nonsteroidal mineralocorticoid receptor antagonists” (Bioorg Med Chem Lett, 2013):

How the values were obtained:
[1] = Apparent intrinsic clearance in human liver microsomes; assay type: ADME; details: read-out: CLH(app)
[2] = biological target: T1, Mineralocorticoid receptor (Homo sapiens, UniProt P08235); test: Displacement of [3H]aldosterone from GST-tagged human mineralocorticoid receptor ligand binding domain after 4 hrs by liquid scintillation counting
T1 sequence (P08235 whole entry): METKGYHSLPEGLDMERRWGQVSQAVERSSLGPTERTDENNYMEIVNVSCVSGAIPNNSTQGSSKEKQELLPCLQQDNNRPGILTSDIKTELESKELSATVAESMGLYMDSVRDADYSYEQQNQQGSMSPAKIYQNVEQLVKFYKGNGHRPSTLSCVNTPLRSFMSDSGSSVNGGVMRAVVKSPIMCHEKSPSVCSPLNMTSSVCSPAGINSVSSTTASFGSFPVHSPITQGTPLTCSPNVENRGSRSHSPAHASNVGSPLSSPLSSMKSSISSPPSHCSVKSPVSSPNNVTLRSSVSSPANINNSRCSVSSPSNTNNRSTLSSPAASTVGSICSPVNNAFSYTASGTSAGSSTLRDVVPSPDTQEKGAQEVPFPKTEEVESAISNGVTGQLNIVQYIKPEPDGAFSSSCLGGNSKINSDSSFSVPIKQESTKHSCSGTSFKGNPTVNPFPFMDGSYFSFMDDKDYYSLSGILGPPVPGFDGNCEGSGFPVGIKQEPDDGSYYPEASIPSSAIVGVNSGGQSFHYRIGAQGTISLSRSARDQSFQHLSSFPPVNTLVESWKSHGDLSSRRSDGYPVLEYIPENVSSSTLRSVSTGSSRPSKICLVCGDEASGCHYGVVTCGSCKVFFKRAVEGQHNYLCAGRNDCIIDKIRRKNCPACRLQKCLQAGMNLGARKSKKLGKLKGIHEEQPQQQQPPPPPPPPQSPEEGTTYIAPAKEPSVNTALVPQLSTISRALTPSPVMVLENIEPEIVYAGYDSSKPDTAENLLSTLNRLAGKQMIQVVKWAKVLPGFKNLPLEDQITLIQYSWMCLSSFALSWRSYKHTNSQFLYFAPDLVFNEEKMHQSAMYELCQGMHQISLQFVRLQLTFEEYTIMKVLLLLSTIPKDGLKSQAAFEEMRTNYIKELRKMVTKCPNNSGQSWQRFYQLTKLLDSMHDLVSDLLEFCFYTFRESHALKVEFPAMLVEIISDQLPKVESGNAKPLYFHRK

[3] = Lipophilicity, log D of the compound; assay type: physicochemical; details: octanol/water
Androgen receptor = biological target: T2, Androgen receptor (Homo sapiens, UniProt P10275); test: Antagonist activity at human androgen receptor ligand binding domain expressed in human Huh7 cells after 16 hrs by luciferase reporter gene assay; assay type: cell-based, Huh-7
T2 sequence (P10275 whole entry): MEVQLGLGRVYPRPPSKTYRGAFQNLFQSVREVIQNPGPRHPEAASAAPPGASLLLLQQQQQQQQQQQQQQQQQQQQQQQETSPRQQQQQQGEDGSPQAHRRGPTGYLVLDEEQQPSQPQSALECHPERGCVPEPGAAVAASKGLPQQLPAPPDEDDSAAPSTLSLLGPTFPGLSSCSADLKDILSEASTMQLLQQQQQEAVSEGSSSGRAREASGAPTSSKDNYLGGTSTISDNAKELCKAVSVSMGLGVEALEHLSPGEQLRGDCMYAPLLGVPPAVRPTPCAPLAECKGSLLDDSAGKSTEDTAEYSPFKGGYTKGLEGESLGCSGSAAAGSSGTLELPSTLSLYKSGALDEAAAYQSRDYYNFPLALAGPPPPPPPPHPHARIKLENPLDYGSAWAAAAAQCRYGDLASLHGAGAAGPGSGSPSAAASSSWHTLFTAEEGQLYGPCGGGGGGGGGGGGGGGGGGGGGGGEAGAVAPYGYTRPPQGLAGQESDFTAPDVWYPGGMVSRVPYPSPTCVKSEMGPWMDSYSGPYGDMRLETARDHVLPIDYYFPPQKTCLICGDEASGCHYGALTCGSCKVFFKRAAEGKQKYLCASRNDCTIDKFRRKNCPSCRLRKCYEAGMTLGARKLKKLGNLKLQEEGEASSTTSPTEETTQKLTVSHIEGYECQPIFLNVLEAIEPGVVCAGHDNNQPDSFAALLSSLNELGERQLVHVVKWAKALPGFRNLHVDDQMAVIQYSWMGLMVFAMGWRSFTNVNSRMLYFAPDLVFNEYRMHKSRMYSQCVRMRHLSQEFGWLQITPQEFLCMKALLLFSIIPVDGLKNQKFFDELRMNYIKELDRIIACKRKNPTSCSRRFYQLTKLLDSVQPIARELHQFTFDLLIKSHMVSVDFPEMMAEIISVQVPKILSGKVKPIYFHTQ

[4] = Apparent permeability across dog RRCK cells; assay type: ADME, cell-based, Canis lupus familiaris, MDCKII-LE; details: MDCK
CYP1A2 = biological target: T3, CYP1A2 (Homo sapiens, UniProt P05177); test: Inhibition of CYP1A2 (unknown origin) at 3 uM; assay type: ADME
T3 sequence (P05177 whole entry): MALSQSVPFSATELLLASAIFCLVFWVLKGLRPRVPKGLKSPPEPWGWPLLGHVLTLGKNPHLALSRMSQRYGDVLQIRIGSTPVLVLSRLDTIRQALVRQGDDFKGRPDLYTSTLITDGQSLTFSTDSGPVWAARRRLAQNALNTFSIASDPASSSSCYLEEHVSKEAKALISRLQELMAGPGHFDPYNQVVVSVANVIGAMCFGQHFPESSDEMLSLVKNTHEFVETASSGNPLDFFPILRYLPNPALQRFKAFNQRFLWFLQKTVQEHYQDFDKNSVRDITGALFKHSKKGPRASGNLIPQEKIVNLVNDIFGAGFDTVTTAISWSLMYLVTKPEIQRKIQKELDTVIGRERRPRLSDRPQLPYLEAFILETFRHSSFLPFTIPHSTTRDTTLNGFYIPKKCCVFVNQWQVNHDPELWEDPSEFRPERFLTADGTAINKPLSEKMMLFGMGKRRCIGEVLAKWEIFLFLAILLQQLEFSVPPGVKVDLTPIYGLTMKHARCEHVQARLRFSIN

Glucocorticoid receptor = biological target: T4, Glucocorticoid receptor (Homo sapiens, UniProt P04150); test: Displacement of [3H]dexamethasone from GST-tagged human glucocorticoid receptor ligand binding domain after 4 hrs by liquid scintillation counting
T4 sequence (P04150 whole entry): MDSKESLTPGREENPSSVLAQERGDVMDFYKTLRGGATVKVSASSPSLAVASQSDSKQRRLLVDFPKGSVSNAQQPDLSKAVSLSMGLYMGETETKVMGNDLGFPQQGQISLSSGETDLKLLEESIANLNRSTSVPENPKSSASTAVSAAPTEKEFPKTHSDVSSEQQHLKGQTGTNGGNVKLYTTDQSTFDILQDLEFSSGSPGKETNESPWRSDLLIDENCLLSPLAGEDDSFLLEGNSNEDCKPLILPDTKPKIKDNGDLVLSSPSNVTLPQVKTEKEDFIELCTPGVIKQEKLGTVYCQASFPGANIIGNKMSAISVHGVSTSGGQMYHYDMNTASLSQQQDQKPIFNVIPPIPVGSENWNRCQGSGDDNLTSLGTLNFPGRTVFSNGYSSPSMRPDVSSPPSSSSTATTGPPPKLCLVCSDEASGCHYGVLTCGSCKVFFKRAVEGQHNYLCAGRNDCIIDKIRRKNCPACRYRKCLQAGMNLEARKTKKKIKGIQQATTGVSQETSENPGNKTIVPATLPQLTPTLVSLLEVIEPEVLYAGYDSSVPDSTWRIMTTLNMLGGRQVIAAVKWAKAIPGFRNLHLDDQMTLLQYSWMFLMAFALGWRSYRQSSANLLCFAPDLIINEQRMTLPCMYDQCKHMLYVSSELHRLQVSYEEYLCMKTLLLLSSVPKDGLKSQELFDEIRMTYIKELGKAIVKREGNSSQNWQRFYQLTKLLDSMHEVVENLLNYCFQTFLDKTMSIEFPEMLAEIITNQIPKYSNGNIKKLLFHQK

CYP2D6 = CYP2D6 (Homo sapiens, UniProt P10635); test: Inhibition of CYP2D6 (unknown origin) at 3 uM; assay type: ADME
Hepatocyte = test: Apparent intrinsic clearance in human hepatocytes assessed per million cells; assay type: ADME, cell-based
[5] = biological target: T1, Mineralocorticoid receptor; test: Antagonist activity at human mineralocorticoid receptor ligand binding domain expressed in human Huh7 cells after 16 hrs by luciferase reporter gene assay in presence of serum; assay type: cell-based, Huh-7
CYP2C9 = CYP2C9 (Homo sapiens, UniProt P11712); test: Inhibition of CYP2C9 (unknown origin) at 3 uM; assay type: ADME
CYP3A4 = CYP3A4 (Homo sapiens, UniProt P08684); test: Inhibition of CYP3A4 (unknown origin) at 3 uM; assay type: ADME
Progesterone receptor = biological target: T5, Progesterone receptor (Homo sapiens, UniProt P06401); test: Displacement of [3H]progesterone from human His-progesterone receptor B after 4 hrs by liquid scintillation counting
T5 sequence (P06401 whole entry): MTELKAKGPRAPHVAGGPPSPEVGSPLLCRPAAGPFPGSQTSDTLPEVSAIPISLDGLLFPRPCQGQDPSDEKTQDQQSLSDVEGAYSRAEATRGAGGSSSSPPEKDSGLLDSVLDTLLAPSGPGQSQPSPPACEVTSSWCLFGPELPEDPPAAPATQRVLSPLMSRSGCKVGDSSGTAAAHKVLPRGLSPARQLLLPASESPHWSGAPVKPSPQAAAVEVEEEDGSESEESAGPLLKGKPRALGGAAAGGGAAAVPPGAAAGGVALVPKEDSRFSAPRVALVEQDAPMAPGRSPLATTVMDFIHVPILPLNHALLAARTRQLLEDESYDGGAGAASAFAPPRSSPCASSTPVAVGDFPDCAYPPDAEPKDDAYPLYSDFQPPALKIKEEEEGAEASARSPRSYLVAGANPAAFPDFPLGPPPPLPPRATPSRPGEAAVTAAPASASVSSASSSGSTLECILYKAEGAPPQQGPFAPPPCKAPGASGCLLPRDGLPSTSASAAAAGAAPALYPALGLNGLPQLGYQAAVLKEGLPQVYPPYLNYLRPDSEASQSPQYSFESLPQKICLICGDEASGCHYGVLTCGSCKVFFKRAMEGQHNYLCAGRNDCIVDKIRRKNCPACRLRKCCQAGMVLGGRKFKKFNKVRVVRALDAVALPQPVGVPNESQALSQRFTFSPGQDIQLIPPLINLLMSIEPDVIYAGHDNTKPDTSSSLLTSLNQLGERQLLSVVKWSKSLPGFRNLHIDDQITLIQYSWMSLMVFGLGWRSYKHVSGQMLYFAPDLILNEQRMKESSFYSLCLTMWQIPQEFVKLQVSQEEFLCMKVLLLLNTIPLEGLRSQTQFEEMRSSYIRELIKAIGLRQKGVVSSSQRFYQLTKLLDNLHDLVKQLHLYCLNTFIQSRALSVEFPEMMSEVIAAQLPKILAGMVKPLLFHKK

[6] = biological target: T1, Mineralocorticoid receptor; test: Antagonist activity at human mineralocorticoid receptor ligand binding domain expressed in human Huh7 cells after 16 hrs by luciferase reporter gene assay in absence of serum; assay type: cell-based, Huh-7

CYP2C9, sequence (P11712 whole entry): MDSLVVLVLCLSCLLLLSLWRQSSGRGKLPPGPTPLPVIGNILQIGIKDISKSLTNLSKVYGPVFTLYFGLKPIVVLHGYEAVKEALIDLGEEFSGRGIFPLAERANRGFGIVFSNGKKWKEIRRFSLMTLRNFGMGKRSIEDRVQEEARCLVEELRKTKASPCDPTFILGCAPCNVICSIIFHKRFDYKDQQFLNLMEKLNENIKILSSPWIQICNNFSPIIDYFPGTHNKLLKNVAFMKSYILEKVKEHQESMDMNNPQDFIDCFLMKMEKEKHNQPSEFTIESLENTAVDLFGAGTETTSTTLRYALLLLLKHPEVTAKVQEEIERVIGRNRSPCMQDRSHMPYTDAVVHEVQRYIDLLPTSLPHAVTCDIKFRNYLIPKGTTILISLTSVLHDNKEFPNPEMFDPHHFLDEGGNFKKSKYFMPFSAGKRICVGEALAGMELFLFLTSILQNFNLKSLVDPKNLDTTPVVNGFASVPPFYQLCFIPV
CYP2D6, sequence (P10635 whole entry): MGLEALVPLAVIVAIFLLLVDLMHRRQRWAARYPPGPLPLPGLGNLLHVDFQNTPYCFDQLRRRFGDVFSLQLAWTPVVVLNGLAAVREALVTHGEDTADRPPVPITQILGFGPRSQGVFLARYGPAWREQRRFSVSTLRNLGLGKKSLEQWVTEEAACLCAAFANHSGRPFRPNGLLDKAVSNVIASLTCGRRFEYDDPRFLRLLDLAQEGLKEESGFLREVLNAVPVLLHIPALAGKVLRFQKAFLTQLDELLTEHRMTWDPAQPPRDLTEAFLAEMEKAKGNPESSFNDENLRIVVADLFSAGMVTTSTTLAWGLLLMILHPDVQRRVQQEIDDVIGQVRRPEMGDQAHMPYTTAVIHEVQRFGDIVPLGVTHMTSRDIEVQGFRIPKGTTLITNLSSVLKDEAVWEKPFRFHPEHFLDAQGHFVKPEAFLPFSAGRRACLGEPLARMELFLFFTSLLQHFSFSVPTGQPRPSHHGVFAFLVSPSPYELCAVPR
CYP3A4, sequence (P08684 whole entry): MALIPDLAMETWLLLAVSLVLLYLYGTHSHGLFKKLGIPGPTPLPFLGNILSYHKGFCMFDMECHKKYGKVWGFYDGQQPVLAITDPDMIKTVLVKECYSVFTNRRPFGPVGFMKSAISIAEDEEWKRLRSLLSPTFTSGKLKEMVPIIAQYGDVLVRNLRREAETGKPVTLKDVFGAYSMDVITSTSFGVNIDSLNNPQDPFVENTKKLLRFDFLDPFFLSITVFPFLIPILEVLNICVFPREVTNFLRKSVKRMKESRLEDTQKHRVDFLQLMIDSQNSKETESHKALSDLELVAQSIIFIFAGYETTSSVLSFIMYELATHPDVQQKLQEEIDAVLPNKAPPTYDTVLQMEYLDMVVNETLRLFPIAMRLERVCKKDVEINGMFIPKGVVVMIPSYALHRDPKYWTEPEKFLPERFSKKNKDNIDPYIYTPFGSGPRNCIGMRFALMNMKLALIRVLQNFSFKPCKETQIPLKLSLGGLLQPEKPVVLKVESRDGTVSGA

Structure (SMILES) | microsomal CLint [1] [µL/min/mg] | IC50 [2] [nM] | logD [3] | other results
Cc1noc(C)c1S(=O)(=O)NCc1ccc(-c2ccccc2)cc1 | 203 | 356 | 4.1 | 
Cc1noc(C)c1S(=O)(=O)NCc1ccc(-c2ccccc2)s1 | 267 | 609 | 3.9 | 
Cc1noc(C)c1S(=O)(=O)NCc1ccc(-c2cccc(C#N)c2)cc1 |  | 40 | 3.3 | 
COc1ccc(C#N)cc1-c1ccc(CNS(=O)(=O)c2c(C)noc2C)cc1 | 198 | 45 | 3.2 | 
Cc1noc(C)c1S(=O)(=O)NCc1ccc(-c2cccc(C(N)=O)c2)cc1 |  | 2030 | 2.4 | 
Cc1noc(C)c1S(=O)(=O)NCc1ccc(-c2cccc(NS(C)(=O)=O)c2)cc1 | 39 | 1390 | 2.9 | 
Cc1noc(C)c1S(=O)(=O)NCc1ccc(-c2cccnc2)cc1 | 86 | 1530 | 2.4 | 
Cc1noc(C)c1S(=O)(=O)NCc1ccc(-c2cncc(C#N)c2)cc1 | 25 | 1970 | 1.9 | 
Cc1noc(C)c1S(=O)(=O)NCc1ccc(-n2ccnc2C)cc1 | 17 | 4700 | 1.5 | 
Cc1cc(C)c(S(=O)(=O)NCc2ccc(-n3ccnc3C)cc2)c(C)c1 | > 320 | 121 | 3.2 | 
Cc1ccccc1S(=O)(=O)NCc1ccc(-n2ccnc2C)cc1 | 53 | 1210 | 2.3 | 
Cc1nccn1-c1ccc(CNS(=O)(=O)c2ccccc2Cl)cc1 | 41 | 342 | 2 | 
Cc1nccn1-c1ccc(CNS(=O)(=O)c2ccccc2F)cc1 | 18 | 1840 | 1.8 | 
Cc1nccn1-c1ccc(CNS(=O)(=O)c2ccc(F)cc2F)cc1 | 28 | 2090 | 2 | 
Cc1nccn1-c1ccc(CNS(=O)(=O)c2cc(F)ccc2F)cc1 | 30 | 627 | 2.1 | 
Cc1nccn1-c1ccc(CNS(=O)(=O)c2cc(F)ccc2F)cc1F | 49 | 168 | 2.4 | 
Cc1cn(-c2ccc(CNS(=O)(=O)c3cc(F)ccc3F)cc2)c(C)n1 | 27 | 191 | 2.3 | IC50 (Androgen receptor): > 10000 nM; Papp [4]: 15.4 ×10⁻⁶ cm/s; Ki [2]: 113 nM; inhibition at 3 µM (CYP1A2): < 5%; IC50 (Glucocorticoid receptor): 2190 nM; inhibition at 3 µM (CYP2D6): < 5%; CLH(app) (Hepatocyte): 9.6 µL/min; IC50 [5]: 1310 nM; inhibition at 3 µM (CYP2C9): < 5%; inhibition at 3 µM (CYP3A4): < 5%; IC50 (Progesterone receptor): > 9210 nM; IC50 [6]: 556 nM
